Where “and” joins values, the source holds several entries; their conditions need not be identical. Equal entries are not always repeated. Entries after “also recorded” stand apart in the source; their conditions may differ.
Assays:
VEGF-C = biological target: T1, VEGF-C (Homo sapiens, UniProt P49767); assay: Direct binding ELISA / BiaCore affinity of VGX-100; settings: capture antigens VEGF-C, VEGF-D or VEGF
T1 construct: purchased R&D Systems
T1 sequence (P49767 112-227): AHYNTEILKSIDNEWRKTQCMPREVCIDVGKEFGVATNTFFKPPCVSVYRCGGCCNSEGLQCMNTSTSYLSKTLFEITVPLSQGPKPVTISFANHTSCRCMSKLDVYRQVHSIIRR
Procedure: VEGF-C antibody VGX-100 was assessed by a direct binding ELISA using VEGF-C, VEGF-D or VEGF (R&D Systems) as capture antigens and bound VGX-100 detected with rabbit anti-human IgG-HRP (Abcam).

[1] = biological target: T2, VEGF-C binding to the extracellular domain of VEGFR-3 (Homo sapiens, UniProt P49767); assay: Ba/F3-VEGFR-3/EpoR bioassay of VEGF-C binding; type: cell-based; settings: [3H]thymidine incorporation, 48 hrs
T2 construct: expressed in transfected cells; host or cells: Ba/F3 cells (BA/F3-VEGFR-3/EpoR)
T2 sequence (P49767 112-227 limits assumed): T1 sequence (P49767 112-227)
Procedure: The binding of VEGF-C to the extracellular domain of VEGFR-2 or VEGFR-3 was measured using BA/F3-VEGFR-2 or -3/EpoR cells. The response to ligands and VGX-100 was measured by [^3H]-thymidine incorporation following exposure for 48 hrs.
Bioassays to measure the binding of VEGF-C to the extracellular domain of VEGFR-2 or VEGFR-3 were performed with BA/F3-VEGFR-2 or BA/F3-VEGFR-3/EpoR cells. The response to ligands and VGX-100 was measured by [^3H] thymidine incorporation following exposure for 48 hrs.

[2] = system: VEGF-C stimulated HUVEC proliferation; assay: HUVEC proliferation assay; type: cell-based; settings: 48 hrs, WST-1
Procedure: HUVEC proliferation assays were conducted for 48 hrs and cell number measured with WST-1 reagent (Roche).

[3] = system: PC-3 human prostate tumors (xenograft); assay: Subcutaneous PC-3 xenograft, single therapy (Example 2); type: in vivo, nude mice
Procedure: Cells were implanted into 80 mice. […] The treatment with drugs began on the day after randomization. […] At the end of the experiment, statistical analysis was performed on the tumor growth rate of each treatment group versus that of the control.

[4] = system: U87MG human glioblastoma tumors; assay: U87MG glioblastoma xenograft, combination (Example 7); type: in vivo, nude mice; settings: VGX-100 40 mg/kg, bevacizumab 10 mg/kg, administered alone
Procedure: This experiment was conducted broadly in accordance with Example 3, except that U87MG glioblastoma cells were substituted for PC-3 prostate cancer cells. Cells from a human glioblastoma tumor line (U87MG) were implanted subcutaneously into mice and grown until the tumors reached an average size of approximately 150 mg. […] There were 10 animals per treatment group.

[5] = system: KP4 human pancreatic tumors; assay: KP4 pancreatic xenograft (Example 8); settings: for % T/C: after 30 days
Procedure: VGX-100 was administered at 20 or 40 mg/kg for single therapy and at 40/mg/kg for combination therapy.
To initiate the study, 5×10^6 of KP4 cells suspended in 100 μl of a mixture of medium/Matrigel (1:1) were subcutaneously implanted to the nude mice in the right flank region. Cancer cells were implanted into 90 mice. Animals were monitored for tumor growth daily after cell implantation. When tumor volumes reached 80-100 mm^3, mice were randomized into 5 groups of 10 mice each using only mice having tumor volumes closest to the mean value. Mice with tumor volumes too big or too small were excluded from the study. Tumor volumes were measured using the formula V=L×W×H×π/6, where L and W represented the longer and shorter diameters of the tumor and H represented the height of the tumor. The treatment with drugs was initiated on the day after randomization. […] All treatments were administered intraperitoneally twice weekly for 30 days.
Throughout the entire study, tumor volumes were measured twice weekly and body weights once weekly. […] Unscheduled sacrifices were performed if tumor volumes reached>2,000 mm^3, animals lost>25% of their original body weights, tumor ulceration appeared, or mice became moribund. At the end of the experiment, tumors were removed, embedded in Optimal Cutting Temperature (OCT), and stored at −80° C. for IHC analysis. Gross examination was conducted on liver, lung, spleen, kidneys, testes, and prostate. If no abnormal observation was detected on these organs, the tissues were discarded.
Tumor size was measured 2-3 times weekly with calipers. Size of tumors relative to controls is calculated after 30 days of treatment.

[6] = system: U87MG glioblastoma tumors (xenograft); assay: U87MG glioblastoma xenograft, single agent (Example 6)
Procedure: Antibodies were administered twice per week by intraperitoneal injection.
To initiate the study, 5×10^6 of U-87 cells suspended in 100 μl of a mixture of medium/Matrigel (1:1) were subcutaneously implanted to the nude mice in the right flank region. Cancer cells were planted into 80 mice. Animals were monitored for tumor growth daily after cell implantation. When tumor volumes reached 80-100 mm^3, mice were randomized into 5 groups of 10 mice each using only mice having tumor volumes closest to the mean value. Mice with tumor volumes too big or too small were excluded from the study. Tumor volumes were measured using the formula V=L×W×H×π/6, where L and W represented the longer and shorter diameters of the tumor and H represented the height of the tumor. The treatment with drugs was initiated on the day after randomization. […] The treatment was carried out twice weekly for 27 days. Throughout the entire study, tumor volumes were measured twice weekly and body weights once weekly. […] Unscheduled sacrifices were performed if tumor volumes reached>1,500 mm^3, animals lost>25% of their original body weights, tumor ulceration appeared, or mice became moribund.

[7] = system: PC-3 human prostate carcinoma xenografts; assay: PC-3 xenograft combination therapy (Example 3, first study);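 also: subcutaneous PC-3 tumors in male athymic NCr nude mice aged 6-7 weeks, combination agents dosed within 30 min of each other, animals euthanized once tumors exceeded 2 g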
Procedure: Docetaxel was administered intravenously at 10 mg/kg weekly for three injections.
HIgG1 Isotype control-humanised antibody (6.4-12.36 mg/ml) and VGX-100 (5.53 and 5.75 mg/ml) were provided as frozen colorless stock solutions in Dulbecco's phosphate buffered saline (DPBS) and stored from light at −80° C. The stock solutions were thawed and stored at 4° C. when treatment began. The dosing solutions (40 mg/kg in 0.2 ml/20 g body weight) were prepared by diluting the stock solution with DPBS. The resulting formulations were clear with pH values ranging from 7.02-7.21. The dosing vials were kept on wet ice during dosing, gently pipetted and not aspirated through a needle except during administration. Dosing solutions were prepared weekly in DPBS and stored protected from light at 4° C. while not in use.
Docetaxel (lot no. D9A095) was manufactured by Sanofi-Aventis and obtained from McKesson as a pale yellow solution in 50% EtOH/50% Tween80. It was stored protected from light at 4° C. Docetaxel was diluted as directed on the package insert with the provided diluent (sterile water) to produce a clear and colorless 10 mg/ml stock solution. On each treatment day, a fresh 10 mg/ml stock was prepared and further diluted with water to achieve the appropriate concentration. The resulting solution was clear and colorless with a pH of 7.16.
All test articles were administered within two hours of preparation. For groups receiving combination therapy, the drugs were administered in the order presented in Table 1 and within 30 minutes of one another.
Male NCR(NCRNU-M) athymic mice were obtained from Taconic. They were 6-7 weeks old on Day 1 of the experiment. The mice were fed irradiated Rodent Diet 5053 (LabDiet™) and water ad libitum. The mice were housed in static cages with Bed-O'Cobs™ bedding inside Biobubble® Clean Rooms that provide H.E.P.A filtered air into the bubble environment at 100 complete air changes per hour. All treatments, body weight determinations, and tumor measurements were carried out in the bubble environment. The environment was controlled to a temperature range of 21.1±1.1° C. (70±2° F.) and a humidity range of 30-70%.
Test mice were implanted subcutaneously on Day 0. […] Mice with tumors in excess of 2 g or with ulcerated tumors were euthanized, as were those found in obvious distress or in a moribund condition.
PC-3 cells were obtained from ATCC and expanded using Ham's F-12 media supplemented with 10% fetal bovine serum and 1% penicillin-streptomycin-glutamine in 5% CO2 atmosphere at 37° C. When expansion was complete, the cells were collected using Trypsin (Cell Gro®), the trypsin neutralized, and the cells pooled for implantation. The PC-3 (Passage 10) cell suspension was counted using trypan blue exclusion with a hemacytometer. The cell suspension was reduced to a pellet using an Eppendorf 5810R centrifuge at 1500 rpm (300×g) for 5 minutes at 4° C. A 2.5×10^7 cells/ml suspension was prepared in 50% serum free media and 50% Matrigel®. Pre-injection viability was 97.7%. Test animals were implanted subcutaneously on Day 0 with 5×10^6 cells/animal (0.2 ml) using a 27-gauge needle and syringe. The cell suspension was maintained on wet ice to minimize the loss of viability and inverted frequently to maintain a uniform cell suspension during the inoculation procedure.
Treatments began on Day 8, when the mean estimated tumor mass for all groups in the experiment was 129 mg (range of group means, 123-134 mg). All animals weighed≧19.2 g at the initiation of therapy. Mean group body weights at first treatment were matched (range of group means, 21.5-22.8 g). All animals were dosed according to individual body weight on the day of treatment (0.2 ml/20 g).

[8] = VGX-100 10 and 20 mg/kg IP twice weekly
[9] = VGX-100 40 mg/kg and/or Avastin 10 mg/kg

VGX-100: VEGF-C antibody; heavy chain SEQ ID NO: 3, light chain SEQ ID NO: 4
Binding selectivity in direct binding ELISA (VEGF-C): selectively recognized and bound to VEGF-C
Blocking of VEGF-C binding to VEGFR-3 [1]: blocked VEGF-C binding
Inhibition of VEGF-C stimulated HUVEC proliferation [2]: inhibited VEGF-C stimulated HUVEC proliferation
Tumor volume response ([3]; VGX-100 40 mg/kg IP twice weekly, 40 mg/kg): significant single-agent activity; also recorded: efficacy equivalent to bevacizumab at 10 mg/kg
Tumor volume response [3, 8]: improved over the negative control
Effect on tumor growth [4]: no significant effect
Mean Tumor Vol. at D30 (mm3) ([5]; VGX-100 20 mg/kg): 1492.77 mm3
Mean Tumor Vol. at D30 (mm3) [5, 9]: 693.24 mm3
Mean Tumor Vol. at D30 (mm3) ([5]; VGX-100 60 mg/kg): 958.93 mm3
% T/C ([5]; VGX-100 20 mg/kg): 76.0%
% T/C [5, 9]: 35.3%
% T/C ([5]; VGX-100 60 mg/kg): 48.8%
Tumor growth vs vehicle control ([6]; VGX-100 40 mg/kg IP twice weekly): significantly inhibited tumor growth
Tumor volume response [6, 8]: improved over the negative control
Time to evaluation size ([7]; 750 mg, individual animals): 39.5 days and 22.8 days and 19.9 days and 22.3 days and 33.5 days and 18.5 days and 31.1 days and 19.4 days and 22.0 days and 22.2 days
Tumor Growth Delay ([7]; T-C, evaluation size 750 mg, same doses): 2.2 days
% T/C Day 22 ([7]; VGX-100 40 mg/kg IP, bevacizumab 10 mg/kg IP, docetaxel 10 mg/kg IV, median tumor mass vs control): 87%
% T/C: tumor burden in treatment group compared to control ([7]; at day 160): 97.9%
% TFS (tumor free survivors) ([7]; at termination, Day 160, same doses): 0%
Td ([7]; group mean): 8.3 days
Time to evaluation size ([7]; group mean): 25.1 days
Time to fold growth EP ([7]; group mean): 20.4 days
Td ([7]; group median): 6.2 days
Time to evaluation size ([7]; group median): 22.2 days
Time to fold growth EP ([7]; group median): 20.8 days
Time to fold growth EP ([7]; individual animals): 27.4 days and 20.9 days and 16.4 days and 21.5 days and 28.2 days and 13.9 days and 21.3 days and 15.8 days and 17.9 days and 20.7 days
Complete regression ([7]; individual animals, yes/no): no
Partial regression ([7]; individual animals, yes/no): no
Tumor free survivor ([7]; individual animals, yes/no): no
Total CR ([7]; number of animals of 10): 0
Total PR ([7]; number of animals of 10): 0
Total TFS ([7]; number of animals of 10): 0
% CR (complete regression) ([7]; same doses): 0%
% PR (partial regression) ([7]; same doses): 0%
Anticancer activity of regimen ([7]; same doses): ineffective
Apparent Net Tumor Cell Kill (logs) ([7]; same doses): −2.85 logs
Tumor regressions ([7]; same doses): Nor tumor regressions were observed
Td ([7]; tumor doubling time, individual animals): 16.6 days and 5.1 days and 6.0 days and 6.1 days and 14.1 days and 5.7 days and 12.3 days and 6.3 days and 7.1 days and 3.8 days

— US20130344065A1, “Combination Treatment with VEGF-C Antagonists” (Vegenics Pty Ltd, priority 2010, published 2013)
